These results are taken from patent US20170368089A1, “COMPOSITION FOR PREVENTING OR TREATING COLITIS” (UNIVERSITY-INDUSTRY COOPERATION GROUP OF KYUNG HEE …, priority 2012, published 2017).

What all share (type): in vivo, ICR male mice
In assay [1] the test system is model animal with acute colitis induced by TNBS. Kind of assay: Acute colitis induced by TNBS in mice: weight change, macroscopic score, colon length, MPO activity, 4th experiment (Timosaponin A-III). To be noted: FIGS. 38 to 41; 10 and 20 mg/mouse kg orally. How it is done: 4-week ICR male mice (24 to 27 g) were purchased from OrientBio. All the mice were bred under the controlled environmental conditions of 50±10% of humidity and 25±2° C. of temperature, and the lighting was repeatedly on for 12 hours and off for 12 hours. A feed for a standard experiment (Samyang, Korea) was used as a feed, and water was freely taken. For all the experiments, one group was 6 mice.
(2) Induction of acute colitis by TNBS and sample administration Among the experimental groups, one group was set as a normal group, and for the experimental animals in other groups, colitis was induced with 2,4,6-trinitrobenzenesulfonic acid (TNBS). […]
The sample administration to the model animals with acute colitis induced by TNBS was stopped, and at the next day, the weights of the experimental animals were measured, and then, the measured weights were compared with the initial weights to calculate the change amounts of weights […]
200 μl of lysis buffer was added to 100 mg of colon tissue, and then, the colon tissue was homogenized. […] In the supernatant, the MPO activity was measured using a mouse MPO assay ELISA kit (Hbt HK210, USA). […]

Assay [2] has the same test system. In words: Acute colitis induced by TNBS in mice, appearance analysis of colon (colon length, macroscopic score), first experiment. To be noted: Table 3 (group 2), TNBS-treated mice, 3 days; for Macroscopic score (Mean score): score 0-5. How it is done:
4-week ICR male mice (24 to 27 g) were purchased from OrientBio. All the mice were bred under the controlled environmental conditions of 50±10% of humidity and 25±2° C. of temperature, and the lighting was repeatedly on for 12 hours and off for 12 hours. A feed for a standard experiment (Samyang, Korea) was used as a feed, and water was freely taken. For all the experiments, one group was 6 mice. […] Meanwhile, 0.1 ml of normal saline solution was orally administered to the normal group. Since then, from the next day, the sample dissolved in normal saline solution was orally administered in the volume that was decided in advance one time a day for 3 days. At the next day after completing the sample administration, the experimental animals were suffocated to death with carbon dioxide, the colon from appendix to the region just before the anus was removed from the colon region. The scores about the removed colons were estimated by observing the appearances and the lengths of the colons according to the following criteria (Hollenbach, and the like, the criteria about the level of colon in 2005) as listed in Table 1. […] In addition, some of the content in the colon was collected in order to analyze the rumen microorganisms, and then, was stored in a freezer of −80° C. From the tissue of colon, the content in the colon was completely removed and then the tissue of colon was washed with normal saline solution. Since then, some of the tissue was fixed with 4% formaldehyde fixing solution in order to be used as a sample for a histopathological examination, and the rest was stored in a freezer of −80° C. for a molecular biological analysis.

Assay [3] relates to IL-1 beta. In words: IL-1 beta expression in colon tissue (ELISA), TNBS colitis, first experiment. To be noted: Table 5 (group 2), TNBS-treated mice, 3 days. How it is done:
(§1) Among the experimental groups, one group was set as a normal group, and for the experimental animals in other groups, colitis was induced with 2,4,6-trinitrobenzenesulfonic acid (TNBS). In detail, after lightly anesthetizing the experimental animals with ether, 0.1 ml of the solution prepared by mixing […] of 2,4,6-Trinitrobenzene sulfonic acid (NBS) solution with 50% ethanol was injected into the colon through the anus using a syringe having 1 ml volume and oval point, respectively; and then, the syringe was vertically picked up, and then, maintained for 30 seconds to induce the inflammation. Meanwhile, 0.1 ml of normal saline solution was orally administered to the normal group. Since then, from the next day, the sample dissolved in normal saline solution was orally administered in the volume that was decided in advance one time a day for 3 days. At the next day after completing the sample administration, the experimental animals were suffocated to death with carbon dioxide, the colon from appendix to the region just before the anus was removed from the colon region.
(§2) 250 μl of RIPA butter including protease inhibitor cocktail was added to 100 mg of the colon tissue of experimental animal, and then, the colon tissue was homogenized. Since then, the homogenized colon tissue was centrifuged under the conditions of 4° C. and 13000 rpm for 15 minutes to obtain supernatant. While the supernatant was stored at −80° C., the expression amounts of IL-1 beta, IL-6, and TNF-alpha were measured using a 96-well ELISA plate kits (Pierce Biotechology, Inc., Rockford, Ill., USA).

For assay [4], the system named is TNF-alpha. In words: TNF-alpha expression in colon tissue (ELISA), TNBS colitis, first experiment. To be noted: Table 5 (group 2), TNBS-treated mice, 3 days. How it is done:
as §1, §2

For assay [5], the system named is Myeloperoxidase (MPO). In words: MPO activity of colon tissue (mouse MPO ELISA kit), TNBS colitis, first experiment. To be noted: Table 3 (group 2), TNBS-treated mice, 3 days. How it is done:
as §1
200 μl of lysis buffer was added to 100 mg of colon tissue, and then, the colon tissue was homogenized. Since then, the homogenized colon tissue was centrifuged under the conditions of 4° C. and 13000 rpm for 15 minutes, and then, the supernatant thereof was obtained. In the supernatant, the MPO activity was measured using a mouse MPO assay ELISA kit (Hbt HK210, USA). 100 μl of the supernatant was added in a 96 well plate, and then, reacted at room temperature for 1 hour. After completing the reaction, the plate was overturned and emptied; was repeatedly washed three times with 200 μl of washing buffer solution; 100 μl of diluted tracer was added thereto; and then the reaction was performed at room temperature for 1 hour. After completing the reaction, the plate was overturned and emptied; and then each well in the plate was washed using 200 μl of washing buffer solution. After repeatedly performing the washing processes three times using 200 μl of washing buffer solution, 100 μl of diluted streptavidin-peroxidase conjugate was added thereto, and then, the reaction was performed at room temperature for 1 hour. After completing the reaction, the plate was overturned and emptied, and then, each well in the plate was washed with 200 μl of washing buffer solution. After the washing processes were repeatedly performed three times using 200 μl of washing buffer solution, 100 μl of TMB substrate solution was added thereto; the plate was wrapped in an aluminum foil to block out the light; and then, the reaction was performed at room temperature for 30 minutes. Since then, 100 μl of a stop solution was added to stop the reaction, and then, the absorbance was measured at 450 nm using an ELISA reader.

The subject of assay [6] is IL-6. In words: IL-6 expression in colon tissue (ELISA), TNBS colitis, first experiment. To be noted: Table 5 (group 2), TNBS-treated mice, 3 days. How it is done:
as §1, §2

On to `C[C@H]1CC[C@@]2(OC1)O[C@H]1C[C@H]3[C@@H]4CC[C@@H]5C[C@@H](O[C@@H]6O[C@H](CO)[C@H](O)[C@H](O)[C@H]6O[C@@H]6O[C@H](CO)[C@@H](O)[C@H](O)[C@H]6O)CC[C@]5(C)[C@H]4CC[C@]3(C)[C@H]1[C@@H]2C` [Timosaponin A-III], for which the “effect on alleviating or improving acute colitis induced by TNBS (weight change, macroscopic score, colon length, MPO activity; in words)” value in assay [1] is “effect on alleviating or improving acute colitis induced by TNBS according to the concentration dependent”.
With `O=c1c2cc(O[C@@H]3O[C@H](CO)[C@@H](O)[C@H](O)[C@H]3O)c(O)cc2oc2cc(O)c([C@@H]3O[C@H](CO)[C@@H](O)[C@H](O)[C@H]3O)c(O)c12` [neomangiferin, Neomangiferin], in assay [2] (10 mg/kg orally), the Colon length was determined as 5.78 ± 0.10 cm and the “Macroscopic score (Mean score)” value amounted to 2.8 ± 0.51. Besides, the IL-1 beta conc. in assay [3] (10 mg/kg orally) came out at 62.2 ± 5.1 pg/mg. Further, in assay [4] (10 mg/kg orally), the TNF-alpha conc. was determined as 93.6 ± 9.2 pg/mg. The MPO activity in assay [5] (10 mg/kg orally) amounted to 0.6 ± 0.2 μUnit/mg. This compound also returned an IL-6 conc. in assay [6] (10 mg/kg orally) of 6.9 ± 1.2 pg/mg.
With `O=c1c2cc(O)c(O)cc2oc2cc(O)c([C@@H]3O[C@H](CO)[C@@H](O)[C@H](O)[C@H]3O)c(O)c12` [mangiferin, Mangiferin], the figures for the Colon length in assay [2] (10 mg/kg orally) and in assay [2] (20 mg/kg orally) were 5.81 ± 0.09 cm and 6.98 ± 0.21 cm, respectively. Besides, the “Macroscopic score (Mean score)” value is 2.7 ± 0.45 in assay [2] (10 mg/kg orally) and 1.7 ± 0.27 in assay [2] (20 mg/kg orally). Further, the IL-1 beta conc. in assay [3] (10 mg/kg orally) was found to be 57.4 ± 2.1 pg/mg; in assay [3] (20 mg/kg orally) it was 28.1 ± 12.1 pg/mg. Moreover, the TNF-alpha conc. in assay [4] (10 mg/kg orally) came out at 83.8 ± 10.9 pg/mg; in assay [4] (20 mg/kg orally), 40.8 ± 10.9 pg/mg. Further, the MPO activity is 0.5 ± 0.2 μUnit/mg in assay [5] (10 mg/kg orally) and 0.2 ± 0.2 μUnit/mg in assay [5] (20 mg/kg orally). In addition, the IL-6 conc. in assay [6] (10 mg/kg orally) worked out at 5.0 ± 0.6 pg/mg; in assay [6] (20 mg/kg orally), 2.2 ± 0.8 pg/mg.
